Structures can show the parent of a compound that is named as a salt.
How the values were obtained:
[1] = tested on: glioblastoma cancer cell line; experiment: MTT viability assay with glioblastoma cancer cell line (Test A); format: cell-based, human; conditions: for EC50: Homo sapiens, 72 hours
From the text: To generate primary patient-derived GBM models for testing small molecule inhibitors, fresh primary tissues were received from patients undergoing surgical resection of WHO grade IV gliomas at Robert Wood Johnson University Hospital (RWJUH) under an approved IRB protocol. De-identified primary human GBM samples were delivered to the laboratory. Cells were obtained through mechanical dissociation of the tumor tissue using a blade and plated in DMEM/F12 medium (Gibco) in the presence of B-27 Supplement (Gibco, #17504-044), 20 ng/ml of human recombinant EGF (Gibco, #PHG0311L) and human recombinant FGF (Peprotech, #AF-100-18B). The following day, the culture was collected, incubated with Accutase (Gibco, #A11105-01) at 37° C. and passed through a 26G×⅜ needle (BD Precision Glide, #305110) to obtain a single cell suspension and re-plated in the same supplemented medium. Cells were cultured at low (5-6) passages in serum-free sphere 3D culture with mitogens that preserve the clonogenic stemness phenotype. […] different primary GBM cells (GBM #46, GBM #50, and GBM #76) were tested for cell viability after treatment with the inhibitors. Cell viability was measured using MTT assay. Briefly, one thousand cells per well were seeded in 96-well plates and exposed to drug in a total of 200 uL media. After 72 hours, 50 uL of stock concentration of 2.5 mg/mL 3-(4,5-dimethylthiazol-2-yl)-2,5-diphenyltetrazolium bromide (MTT) (Sigma, #M2128) dissolved in PBS was added to wells and incubated at 37° C. for 4 hours; read in a […] plate reader at 570 nm and compared to DMSO and untreated cells. The IC50 (defined as the concentration at which 50% of the cells were viable) was determined from the curve.
Accordingly, compounds of the invention may be useful as therapeutic agents for the treatment of cancer.
To generate primary patient-derived GBM models for testing small molecule inhibitors, fresh primary tissues were received from patients undergoing surgical resection of WHO grade IV gliomas at Robert Wood Johnson University Hospital (RWJUH) under an approved RB protocol. De-identified primary human GBM samples were delivered to the laboratory. Cells were obtained through mechanical dissociation of the tumor tissue using a blade and plated in DMEM/F12 medium (Gibco) in the presence of B-27 Supplement (Gibco, #17504-044), 20 ng/ml of human recombinant EGF (Gibco, #PHG0311L) and human recombinant FGF (Peprotech, #AF-100-18B). […] Cell viability was measured using MTT assay. […] After 72 hours, 50 uL of stock concentration of 2.5 mg/mL 3-(4,5-dimethylthiazol-2-yl)-2,5-diphenyltetrazolium bromide (MTT) (Sigma, #M2128) dissolved in PBS was added to wells and incubated at 37° C. for 4 hours; read in a […] plate reader at 570 nm and compared to DMSO and untreated cells. […]

BMI-1 and αENaC mRNA = experiment: mRNA expression of BMI-1 and αENaC on concomitant treatment with cyclohexamide; format: cell-based; conditions: RU-A15 100 nM, RU-A16 200 nM, concomitant with CHX
Experimental: Next, to test if Examples 3 and 4 are selective for BMI-1 RNA, cells were concomitantly treated with RU-A15/16 (100 nM, 200 nM, respectively) and cyclohexamide (CHX), a general translational inhibitor, and analyzed mRNA expression of BMI-1 and the CHX-specific target epithelial sodium channel (αENaC).

[2] = tested on: BMI-1 and ubiquitinated histone H2A in primary glioblastoma cells; experiment: Modulation / dynamics of BMI-1 and downstream targets in GBM cells (Western blotting); format: cell-based, human
Experimental: Different GBM cells were treated with DMSO or different concentrations of the B compounds for 72 hours. Cells were lysed in Cell Lysis Buffer (Cell Signaling, #9803) supplemented with Protease Inhibitor Cocktail (Sigma, #P8340), spun down for 30 minutes at 4° C., after which the supernatant was collected at every time point indicated. Western blotting analysis was performed on all samples as described above. BMI-1 loss started at 6-12 h, coinciding with an upper shift and hyper-phosphorylation of BMI-1 at 12-24 h and complete depletion at 72 h.
To study the compound dynamic activity against GBM spheres, GBMs were tested with exemplary compounds. Different GBM cells were treated with DMSO or different concentrations of the inhibitors for 72 hours. Cells were lysed in Cell Lysis Buffer (Cell Signaling, #9803) supplemented with Protease Inhibitor Cocktail (Sigma, #P8340), spun down for 30 minutes at 4° C., after which the supernatant was collected at every time point indicated. Western blotting analysis was performed on all samples as described above. […] BMI-1 loss started at 6-12 h, coinciding with an upper shift and hyper-phosphorylation of BMI-1 at 12-24 h and complete depletion at 72 h. […] This is expected since BMI-1 is known to suppress p21. BMI-1 inhibition could be reversed using phosphatase treatment, moreover, when proteasomal inhibitor is added to treated cells after 24 h, BMI-1 is locked in the phosphorylated state, therefore showing that the phosphorylation event precedes BMI-1 degradation. The phosphorylation was independent of p38 kinase activation, as when we added […], the p38 inhibitor to the cultured cells upon treatment with the BMI-1 inhibitor, the combined treatment could not reverse the effects of RU-A15 on BMI-1 inhibition.

BMI-1 5'UTR = experiment: Luciferase plasmid containing the BMI-1 5'UTR with or without binding pocket; format: cell-based
Experimental: Since translation initiation is dependent on RNA folding, the 3D folding of the BMI-1 5′UTR was examined. To identify sequences that fold into a target minimum and maximum free energy (MFE) secondary structure, inverse RNA folding of the BMI-1 5′UTR was performed using the mFold server. A highly probable, probability annotated group of secondary structures were identified, starting with the MFE, centroid energy structures and including fourteen other probabilities. […] In a luciferase plasmid containing the BMI-1 5′UTR, the sequences of the pocket region that contains the potential binding site was removed by cutting with compatible restriction enzymes and re-ligating the plasmid. The luciferase activity was examined with the luc plasmids or without the binding pocket upon treatment with the inhibitors. […] Thus, RU-A15/A16 engages with the BMI-1 UTR regulatory mechanisms.

U87 glioblastoma cells = experiment: Comparison of Example 3 and PTC-209 in U87 glioblastoma cells (cell viability); format: cell-based; conditions: 72 hours
From the text: BMI-1 inhibitors were developed by the Molecular Design and Synthesis laboratory, Rutgers Translational Sciences at Rutgers University, NJ, USA. […] (Generic name is PTC-209) was characterized among a screen for post-transcriptional inhibitors of BMI-1. Zebrafish embryo toxicology assays were used to select RU-A compounds with no embryonic toxicity in vivo (a surrogate assay for toxic effects on normal stem cells). […] Cells were counted using Beckman Coulter Vi-CELL Cell Viability Analyzer, and cell viability was confirmed by CellTiter-Glo Luminescent Cell Viability Assay (Promega, Madison, Wis., USA) according to standard protocols and analyzed with a Victor 2 plate reader (Wallac, Turku, Finland).

[3] = primary glioblastoma cells, Western blotting

## Cc1c(-c2csc(Nc3ccc(N(C)C)cc3)n2)nc2ccccn12 [Example B4, N^1,N^1-dimethyl-N^4-(4-(3-methylimidazo[1,2-a]pyridin-2-yl)thiazol-2-yl)benzene-1,4-diamine]
[1]; cell marked (EC80) in the EC50 column
  EC80: 20 (EC80) μM

## C[C@@H]1C[C@@H]([C@H](O)CC2CC(=O)NC(=O)C2)C(=O)[C@@H](C)C1 [CHX, cyclohexamide, reference compound]
BMI-1 and αENaC mRNA
  BMI-1 mRNA expression: lowered mRNA levels
  αENaC mRNA expression: lowered mRNA levels

## COc1ccc(Nc2nc(-c3nc4ccccn4c3C)cs2)cc1 [Example B3, N-(4-methoxyphenyl)-4-(3-methylimidazo[1,2-a]pyridin-2-yl)thiazol-2-amine]
[1]
  EC50: 20 µM

## Cc1nc2ccccn2c1-c1csc(Nc2ccc3c(c2)OCO3)n1 [Example 4, N-(benzo[d][1,3]dioxol-5-yl)-4-(2-methylimidazo[1,2-a]pyridin-3-yl)thiazol-2-amine hydrobromide]
[2]; GBM#46 and #50
  CDK inhibitor p21: induced upregulation of the CDK inhibitor p21
[2]; [3]
  BMI-1 protein levels: inhibit BMI-1
  WT p53 levels: increase WT p53 levels
  ubiquitin H2A: inhibit ubiquitin H2A
BMI-1 5'UTR; intact minor groove potential binding pocket
  normalized luc, BMI-1 5'UTR with intact binding pocket: significantly reduced normalized luc
BMI-1 5'UTR; pocket sequences removed
  normalized luc, binding pocket sequences removed: not when the pocket sequences were removed
BMI-1 and αENaC mRNA
  BMI-1 mRNA expression: did not inhibit
  αENaC mRNA expression: did not inhibit

## Cc1c(-c2csc(Nc3ccc(N(C)C)cc3)n2)nc2ncccn12 [Example B2, N^1,N^1-dimethyl-N^4-(4-(3-methylimidazo[1,2-a]pyrimidin-2-yl)thiazol-2-yl)benzene-1,4-diamine]
[2]; GBM cells, B compounds, 72 hours
  modulation of ubiquitinated histone H2A (Test B): modulation of downstream target ubiquitinated histone H2A
[1]
  EC50: 1 µM

## COc1cc(Br)c(Nc2nc(-c3c(C)nc4ncccn34)cs2)c(Br)c1 [PTC-209, reference compound]
U87 glioblastoma cells
  IC50: 10 µM

— patent publication US10875861B1, “Therapeutic compounds” (Rutgers, The State University of New Jersey, priority 2017, dated 2020)
